Measurements reported in US20120121591A1 (priority 2009, published 2012).

How the values were obtained:
Type in all cases: cell-based
[1] = test system: IFN-g secretion from T cells in human whole blood; conditions: read-out: WB (IFNg) IC50 (nM, Avg)
hKv1.3 = hKv1.3 (Homo sapiens, UniProt P22001); assay: cell-based; conditions: Kv1.3 (IWQ) IC50 (nM, Avg)
[2] = test system: IL-2 secretion from T cells in human whole blood; conditions: read-out: WB (IL-2) IC50 (nM, Avg)

Sequence of hKv1.3 (P22001 whole entry): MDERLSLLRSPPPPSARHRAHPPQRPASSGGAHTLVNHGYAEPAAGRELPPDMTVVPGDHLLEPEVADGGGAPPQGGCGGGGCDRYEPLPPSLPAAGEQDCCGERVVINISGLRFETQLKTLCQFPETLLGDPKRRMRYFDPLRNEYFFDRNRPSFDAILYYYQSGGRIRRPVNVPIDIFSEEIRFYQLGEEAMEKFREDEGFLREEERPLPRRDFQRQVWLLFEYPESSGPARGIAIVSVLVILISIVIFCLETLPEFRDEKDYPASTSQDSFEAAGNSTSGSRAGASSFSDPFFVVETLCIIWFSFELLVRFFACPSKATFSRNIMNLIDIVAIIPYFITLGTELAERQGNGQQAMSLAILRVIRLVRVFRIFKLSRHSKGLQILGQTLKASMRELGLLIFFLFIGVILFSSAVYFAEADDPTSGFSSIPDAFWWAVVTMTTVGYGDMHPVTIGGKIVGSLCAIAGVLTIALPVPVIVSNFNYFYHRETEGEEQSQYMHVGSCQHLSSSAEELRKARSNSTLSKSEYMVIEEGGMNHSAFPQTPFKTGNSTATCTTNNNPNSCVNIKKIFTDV

Structure (SMILES)	IC50 [1]	IC50 (hKv1.3)	IC50 [2]
CC[C@H](C)[C@@H]1NC(=O)[C@@H](NC(=O)[C@H](CO)NC(=O)[C@@H](N)CCCNC(=N)N)CSSC[C@@H](C(N)=O)NC(=O)[C@H]([C@@H](C)O)NC(=O)CNC(=O)[C@@H]2CSSC[C@@H]3NC(=O)[C@H](CCCCN)NC(=O)[C@H](C)NC(=O)[C@H](C)NC(=O)[C@H]([C@@H](C)O)NC(=O)[C@H](CSSC[C@H](NC(=O)[C@H](Cc4ccccc4)NC(=O)[C@H](CO)NC(=O)[C@H](CC(C)C)NC(=O)[C@H](CCCNC(=N)N)NC(=O)[C@H](Cc4ccc(O)cc4)NC(=O)[C@H](CCCCN)NC(=O)[C@H](CCSC)NC(=O)[C@H](CO)NC(=O)[C@H](Cc4c[nH]cn4)NC(=O)[C@H](CCCCN)NC3=O)C(=O)N[C@@H](CCCNC(=N)N)C(=O)N[C@@H](CCCCN)C(=O)N[C@@H]([C@@H](C)O)C(=O)N2)NC(=O)[C@H](CCCNC(=N)N)NC(=O)[C@H](CO)NC(=O)[C@H](CCCCN)NC(=O)[C@@H]2CCCN2C(=O)[C@H]([C@@H](C)CC)NC(=O)[C@H]([C@@H](C)O)NC(=O)[C@H](CC(=O)O)NC1=O [[Ala15,Lys16]ShK-amide]	0.193 nM	0.091 nM	0.167 nM
CC[C@H](C)[C@@H]1NC(=O)[C@@H](NC(=O)[C@H](CO)NC(=O)[C@@H](N)CCCNC(=N)N)CSSC[C@@H](C(=O)O)NC(=O)[C@H]([C@@H](C)O)NC(=O)CNC(=O)[C@@H]2CSSC[C@@H]3NC(=O)[C@H](CCC(N)=O)NC(=O)[C@H](Cc4ccccc4)NC(=O)[C@H](C)NC(=O)[C@H]([C@@H](C)O)NC(=O)[C@H](CSSC[C@H](NC(=O)[C@H](Cc4ccccc4)NC(=O)[C@H](CO)NC(=O)[C@H](CC(C)C)NC(=O)[C@H](CCCNC(=N)N)NC(=O)[C@H](Cc4ccc(O)cc4)NC(=O)[C@H](CCCCN)NC(=O)[C@H](CCSC)NC(=O)[C@H](CO)NC(=O)[C@H](C)NC(=O)[C@H](CCCCN)NC3=O)C(=O)N[C@@H](CCCNC(=N)N)C(=O)N[C@@H](CCCCN)C(=O)N[C@@H]([C@@H](C)O)C(=O)N2)NC(=O)[C@H](CCCNC(=N)N)NC(=O)[C@H](CO)NC(=O)[C@H](CCCCN)NC(=O)[C@@H]2CCCN2C(=O)[C@H]([C@@H](C)CC)NC(=O)[C@H]([C@@H](C)O)NC(=O)[C@H](CC(=O)O)NC1=O [[Ala19]ShK]	0.472 nM	0.237 nM	0.379 nM
CC[C@H](C)[C@@H]1NC(=O)[C@@H](NC(=O)[C@H](CO)NC(=O)[C@@H](N)CCCNC(=N)N)CSSC[C@@H](C(=O)O)NC(=O)[C@H]([C@@H](C)O)NC(=O)CNC(=O)[C@@H]2CSSC[C@@H]3NC(=O)[C@H](CCC(N)=O)NC(=O)[C@H](Cc4ccccc4)NC(=O)[C@H](C)NC(=O)[C@H]([C@@H](C)O)NC(=O)[C@H](CSSC[C@H](NC(=O)[C@H](Cc4ccccc4)NC(=O)[C@H](CO)NC(=O)[C@H](CC(C)C)NC(=O)[C@H](C)NC(=O)[C@H](Cc4ccc(O)cc4)NC(=O)[C@H](CCCCN)NC(=O)[C@H](CCSC)NC(=O)[C@H](CO)NC(=O)[C@H](Cc4c[nH]cn4)NC(=O)[C@H](CCCCN)NC3=O)C(=O)N[C@@H](CCCNC(=N)N)C(=O)N[C@@H](CCCCN)C(=O)N[C@@H]([C@@H](C)O)C(=O)N2)NC(=O)[C@H](CCCNC(=N)N)NC(=O)[C@H](CO)NC(=O)[C@H](CCCCN)NC(=O)[C@@H]2CCCN2C(=O)[C@H]([C@@H](C)CC)NC(=O)[C@H]([C@@H](C)O)NC(=O)[C@H](CC(=O)O)NC1=O [[Ala24]ShK]	0.216 nM	0.062 nM	0.043 nM
CC[C@H](C)[C@@H]1NC(=O)[C@@H](NC(=O)[C@H](CO)NC(=O)[C@@H](N)CCCNC(=N)N)CSSC[C@@H](C(=O)O)NC(=O)[C@H]([C@@H](C)O)NC(=O)CNC(=O)[C@@H]2CSSC[C@@H]3NC(=O)[C@H](CCC(N)=O)NC(=O)[C@H](Cc4ccccc4)NC(=O)[C@H](C)NC(=O)[C@H]([C@@H](C)O)NC(=O)[C@H](CSSC[C@H](NC(=O)[C@H](Cc4ccccc4)NC(=O)[C@H](CO)NC(=O)[C@H](C)NC(=O)[C@H](CCCNC(=N)N)NC(=O)[C@H](Cc4ccc(O)cc4)NC(=O)[C@H](CCCCN)NC(=O)[C@H](CCSC)NC(=O)[C@H](CO)NC(=O)[C@H](Cc4c[nH]cn4)NC(=O)[C@H](CCCCN)NC3=O)C(=O)N[C@@H](CCCNC(=N)N)C(=O)N[C@@H](CCCCN)C(=O)N[C@@H]([C@@H](C)O)C(=O)N2)NC(=O)[C@H](CCCNC(=N)N)NC(=O)[C@H](CO)NC(=O)[C@H](CCCCN)NC(=O)[C@@H]2CCCN2C(=O)[C@H]([C@@H](C)CC)NC(=O)[C@H]([C@@H](C)O)NC(=O)[C@H](CC(=O)O)NC1=O [[Ala25]ShK]	0.408 nM	0.116 nM	0.195 nM
CC[C@H](C)[C@@H]1NC(=O)[C@@H](NC(=O)[C@H](CO)NC(=O)[C@@H](N)CCCNC(=N)N)CSSC[C@@H](C(=O)O)NC(=O)[C@H]([C@@H](C)O)NC(=O)CNC(=O)[C@@H]2CSSC[C@@H]3NC(=O)[C@H](CCC(N)=O)NC(=O)[C@H](Cc4ccccc4)NC(=O)[C@H](C)NC(=O)[C@H]([C@@H](C)O)NC(=O)[C@H](CSSC[C@H](NC(=O)[C@H](C)NC(=O)[C@H](CO)NC(=O)[C@H](CC(C)C)NC(=O)[C@H](CCCNC(=N)N)NC(=O)[C@H](Cc4ccc(O)cc4)NC(=O)[C@H](CCCCN)NC(=O)[C@H](CCSC)NC(=O)[C@H](CO)NC(=O)[C@H](Cc4c[nH]cn4)NC(=O)[C@H](CCCCN)NC3=O)C(=O)N[C@@H](CCCNC(=N)N)C(=O)N[C@@H](CCCCN)C(=O)N[C@@H]([C@@H](C)O)C(=O)N2)NC(=O)[C@H](CCCNC(=N)N)NC(=O)[C@H](CO)NC(=O)[C@H](CCCCN)NC(=O)[C@@H]2CCCN2C(=O)[C@H]([C@@H](C)CC)NC(=O)[C@H]([C@@H](C)O)NC(=O)[C@H](CC(=O)O)NC1=O [[Ala27]ShK]	8.78 nM	0.207 nM	1.57 nM
CC[C@H](C)[C@@H]1NC(=O)[C@@H](NC(=O)[C@H](CO)NC(=O)[C@@H](N)CCCNC(=N)N)CSSC[C@@H](C(=O)O)NC(=O)[C@H]([C@@H](C)O)NC(=O)CNC(=O)[C@@H]2CSSC[C@@H]3NC(=O)[C@H](CCC(N)=O)NC(=O)[C@H](Cc4ccccc4)NC(=O)[C@H](C)NC(=O)[C@H]([C@@H](C)O)NC(=O)[C@H](CSSC[C@H](NC(=O)[C@H](Cc4ccccc4)NC(=O)[C@H](CO)NC(=O)[C@H](CC(C)C)NC(=O)[C@H](CCCNC(=N)N)NC(=O)[C@H](Cc4ccc(O)cc4)NC(=O)[C@H](CCCCN)NC(=O)[C@H](CCSC)NC(=O)[C@H](CO)NC(=O)[C@H](Cc4c[nH]cn4)NC(=O)[C@H](CCCCN)NC3=O)C(=O)N[C@@H](CCCNC(=N)N)C(=O)N[C@@H](C)C(=O)N[C@@H]([C@@H](C)O)C(=O)N2)NC(=O)[C@H](CCCNC(=N)N)NC(=O)[C@H](CO)NC(=O)[C@H](CCCCN)NC(=O)[C@@H]2CCCN2C(=O)[C@H]([C@@H](C)CC)NC(=O)[C@H]([C@@H](C)O)NC(=O)[C@H](CC(=O)O)NC1=O [[Ala30]ShK]	0.394 nM	0.178 nM	0.258 nM
CC[C@H](C)[C@@H]1NC(=O)[C@@H](NC(=O)[C@H](CO)NC(=O)[C@@H](N)CCCNC(=N)N)CSSC[C@@H](C(=O)O)NC(=O)[C@H]([C@@H](C)O)NC(=O)[C@H](C)NC(=O)[C@@H]2CSSC[C@@H]3NC(=O)[C@H](CCC(N)=O)NC(=O)[C@H](Cc4ccccc4)NC(=O)[C@H](C)NC(=O)[C@H]([C@@H](C)O)NC(=O)[C@H](CSSC[C@H](NC(=O)[C@H](Cc4ccccc4)NC(=O)[C@H](CO)NC(=O)[C@H](CC(C)C)NC(=O)[C@H](CCCNC(=N)N)NC(=O)[C@H](Cc4ccc(O)cc4)NC(=O)[C@H](CCCCN)NC(=O)[C@H](CCSC)NC(=O)[C@H](CO)NC(=O)[C@H](Cc4c[nH]cn4)NC(=O)[C@H](CCCCN)NC3=O)C(=O)N[C@@H](CCCNC(=N)N)C(=O)N[C@@H](CCCCN)C(=O)N[C@@H]([C@@H](C)O)C(=O)N2)NC(=O)[C@H](CCCNC(=N)N)NC(=O)[C@H](CO)NC(=O)[C@H](CCCCN)NC(=O)[C@@H]2CCCN2C(=O)[C@H]([C@@H](C)CC)NC(=O)[C@H]([C@@H](C)O)NC(=O)[C@H](CC(=O)O)NC1=O [[Ala33]ShK]	0.1 nM	0.075 nM	0.049 nM
CC[C@H](C)[C@@H]1NC(=O)[C@@H](NC(=O)[C@H](CO)NC(=O)[C@@H](N)CCCNC(=N)N)CSSC[C@@H](C(=O)O)NC(=O)[C@H](C)NC(=O)CNC(=O)[C@@H]2CSSC[C@@H]3NC(=O)[C@H](CCC(N)=O)NC(=O)[C@H](Cc4ccccc4)NC(=O)[C@H](C)NC(=O)[C@H]([C@@H](C)O)NC(=O)[C@H](CSSC[C@H](NC(=O)[C@H](Cc4ccccc4)NC(=O)[C@H](CO)NC(=O)[C@H](CC(C)C)NC(=O)[C@H](CCCNC(=N)N)NC(=O)[C@H](Cc4ccc(O)cc4)NC(=O)[C@H](CCCCN)NC(=O)[C@H](CCSC)NC(=O)[C@H](CO)NC(=O)[C@H](Cc4c[nH]cn4)NC(=O)[C@H](CCCCN)NC3=O)C(=O)N[C@@H](CCCNC(=N)N)C(=O)N[C@@H](CCCCN)C(=O)N[C@@H]([C@@H](C)O)C(=O)N2)NC(=O)[C@H](CCCNC(=N)N)NC(=O)[C@H](CO)NC(=O)[C@H](CCCCN)NC(=O)[C@@H]2CCCN2C(=O)[C@H]([C@@H](C)CC)NC(=O)[C@H]([C@@H](C)O)NC(=O)[C@H](CC(=O)O)NC1=O [[Ala34]ShK]	0.075 nM	0.123 nM	0.063 nM
CC[C@H](C)[C@@H]1NC(=O)[C@@H](NC(=O)[C@H](CCCNC(=N)N)NC(=O)[C@@H](N)CCCNC(=N)N)CSSC[C@@H](C(=O)O)NC(=O)[C@H]([C@@H](C)O)NC(=O)CNC(=O)[C@@H]2CSSC[C@@H]3NC(=O)[C@H](CCC(N)=O)NC(=O)[C@H](Cc4ccccc4)NC(=O)[C@H](C)NC(=O)[C@H]([C@@H](C)O)NC(=O)[C@H](CSSC[C@H](NC(=O)[C@H](Cc4ccccc4)NC(=O)[C@H](CO)NC(=O)[C@H](CC(C)C)NC(=O)[C@H](CCCNC(=N)N)NC(=O)[C@H](Cc4ccc(O)cc4)NC(=O)[C@H](CCCCN)NC(=O)[C@H](CCSC)NC(=O)[C@H](CO)NC(=O)[C@H](Cc4c[nH]cn4)NC(=O)[C@H](CCCCN)NC3=O)C(=O)N[C@@H](CCCNC(=N)N)C(=O)N[C@@H](CCCCN)C(=O)N[C@@H]([C@@H](C)O)C(=O)N2)NC(=O)[C@H](CCCNC(=N)N)NC(=O)[C@H](CO)NC(=O)[C@H](CCCCN)NC(=O)[C@@H]2CCCN2C(=O)[C@H]([C@@H](C)CC)NC(=O)[C@H]([C@@H](C)O)NC(=O)[C@H](CC(=O)O)NC1=O [[Arg2]ShK]	0.087 nM	0.074 nM	0.097 nM
